What was measured:
[1] = system: advanced, rapidly progressive, treatment-refractory solid tumor cancers (colorectal, pancreatic, ovarian, prostate); settings: cited from earlier work
MMP-2 = target: T1, MMP-2 (Homo sapiens, UniProt P08253); assay: In vitro metalloprotease inhibition, fluorogenic MCA peptide substrate; settings: Inhibition Table; room temperature, pH 7.5, 4 μM substrate
T1 sequence (P08253 110-660): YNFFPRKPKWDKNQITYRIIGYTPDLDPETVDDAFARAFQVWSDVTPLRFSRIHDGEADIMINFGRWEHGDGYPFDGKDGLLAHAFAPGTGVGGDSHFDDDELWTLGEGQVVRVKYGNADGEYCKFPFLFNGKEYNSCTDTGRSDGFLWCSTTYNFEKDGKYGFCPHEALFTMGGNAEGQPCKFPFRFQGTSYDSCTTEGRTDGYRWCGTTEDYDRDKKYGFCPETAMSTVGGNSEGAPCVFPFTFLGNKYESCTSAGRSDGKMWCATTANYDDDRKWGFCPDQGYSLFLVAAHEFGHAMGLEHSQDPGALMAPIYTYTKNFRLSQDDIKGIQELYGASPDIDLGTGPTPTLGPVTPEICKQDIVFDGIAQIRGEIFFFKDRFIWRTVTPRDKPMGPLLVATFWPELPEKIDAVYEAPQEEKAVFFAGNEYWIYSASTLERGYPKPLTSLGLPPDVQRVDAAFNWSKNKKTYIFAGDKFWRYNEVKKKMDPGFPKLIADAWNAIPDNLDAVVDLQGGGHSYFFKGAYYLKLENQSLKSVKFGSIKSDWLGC

recombinant human MMP-13 = recombinant human MMP-13 (Homo sapiens, UniProt P45452); assay: as above; format: biochemical; settings: Inhibition Table; room temperature, pH 7.5, 4 μM substrate
Procedure: The compounds prepared in the manner described in the Examples above were assayed for activity by an in vitro assay. Following the procedures of Knight et al., FEDS Lett. 296(3):263 (1992).
More specifically, recombinant human MMP-13 and MMP-1 enzymes were prepared in laboratories of the assignee following usual laboratory procedures. MMP-13 from a full length cDNA clone was expressed as a proenzyme using a baculovirus as discussed in V.A. Luckow, insect Cell Expression Technology, pages 183-218, in Protein Engineering: Principles and Practice, J. L. Cleland et al eds., Wiley-Liss, Inc., (1996). […]
In the absence of inhibitor activity, a fluorogenic peptide was cleaved at the gly-leu peptide bond, separating the highly fluorogenic peptide from a 2,4-dinitrophenyl quencher, resulting in an increase of fluorescence intensity (excitation at 328 nm/emission at 415 nm). Inhibition was measured as a reduction in fluorescent intensity as a function of inhibitor concentration, using a Perkin Elmer L550 plate reader. The IC50 values were calculated from those values. […]

recombinant human MMP-1 = target: T2, recombinant human MMP-1 (Homo sapiens, UniProt P03956); assay: as above; settings: Inhibition Table; room temperature, pH 7.5, 4 μM substrate
T2 sequence (P03956 100-469): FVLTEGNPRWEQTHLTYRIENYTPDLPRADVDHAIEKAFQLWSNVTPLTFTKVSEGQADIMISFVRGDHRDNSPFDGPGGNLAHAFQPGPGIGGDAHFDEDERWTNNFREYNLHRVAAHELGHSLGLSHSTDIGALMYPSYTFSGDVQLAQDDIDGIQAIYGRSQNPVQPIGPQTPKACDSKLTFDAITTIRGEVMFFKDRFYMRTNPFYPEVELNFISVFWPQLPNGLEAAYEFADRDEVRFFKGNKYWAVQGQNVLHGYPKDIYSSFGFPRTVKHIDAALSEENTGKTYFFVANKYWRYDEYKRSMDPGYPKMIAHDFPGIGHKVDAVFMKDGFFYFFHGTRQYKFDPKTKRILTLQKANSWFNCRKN

ED50 MMP-2 (MMP-2)	ED50 MMP-13 (recombinant human MMP-13)	ED50 MMP-1 (recombinant human MMP-1)	Molecule	most common drug-related toxicity ([1]; Phase I/II clinical trials)	cancer-specific antigens used as surrogate markers for biological activity ([1]; Phase I/II studies, patients with advanced solid tumor cancers)
–	–	–	CNC(=O)[C@@H](NC(=O)[C@H](CC(C)C)[C@H](O)C(=O)NO)C(C)(C)C [marimastat, Marimastat]	musculoskeletal pain and stiffness	dose-related reduction in the rise of cancer-specific antigens
<10,000 nM	<10,000 nM	<10,000 nM	4-[[4-[[(3R,5R)-rel-3,5-Dimethyl-1-piperidinyl]carbonyl]-1-piperidinyl]sulfonyl]tetrahydro-N-hydroxy-2H-pyran-4-carboxamide and 4-[[4-[[(3R,5S)-rel-3,5-dimethyl-1-piperidinyl]carbonyl]-1-piperidinyl]sulfonyl]tetrahydro-N-hydroxy-2H-pyran-4-carboxamide [Example 49]	–	–

Source: US6492367B1, “Sulfamato hydroxamic acid metalloprotease inhibitor” (G. D. Searle & Company, priority 1999, dated 2002)
